The values below come from ChEMBL document CHEMBL5029145, “Discovery of AZD8154, a Dual PI3Kγδ Inhibitor for the Treatment of Asthma” (J Med Chem, 2021).

In brackets after ≈: the same amount, converted by molar mass.

The target of data set [1] is Phosphatidylinositol 3-kinase catalytic subunit type 3 (Homo sapiens, UniProt Q8NEB9). In words: Inhibition of PIK3C3 (unknown origin) assessed as reduction in substrate phosphorylation by FRET Adapta assay.
The nature of data set [2]: Permeability in human Caco2 cells. Format: ADME, cell-based. Particulars: caco-2.
Data set [3] concerns the target Phosphatidylinositol 4-kinase beta (Homo sapiens, UniProt Q9UBF8). In words: Inhibition of PI4KB (unknown origin) assessed as reduction in substrate phosphorylation by FRET Adapta assay.
The nature of data set [4]: Solubility of compound in at pH 7.4 at 1 mg/ml using crystalline form of sample incubated for 24 hrs by HPLC MS analysis. The class given is physicochemical.
The nature of data set [5]: Thermodynamic stability assessed as onset melting temperature. The class given is physicochemical.
For data set [6], the target named is Phosphatidylinositol 4,5-bisphosphate 3-kinase catalytic subunit gamma isoform (Mus musculus, UniProt Q9JHG7). As to the kind of experiment: Inhibition of PI3Kgamma in C5a-stimulated mouse RAW 264 cells assessed as inhibition of AKT phosphorylation at Ser473 residue Pretreated for 15 mins followed by C5a stimulation measured after 3 mins by HTRF assay. Format: cell-based.

In data set [7] the target is Phosphatidylinositol 4-kinase alpha (Homo sapiens, UniProt P42356). As to the kind of experiment: Inhibition of PI4KA (unknown origin) assessed as reduction in substrate phosphorylation by FRET Adapta assay.
Data set [8] is described as follows: Apparent terminal half life in rat administered via inhalation. The class given is ADME. To be noted: in vivo, inhaled or intranasal.
Data set [9] has as its target Phosphatidylinositol 4,5-bisphosphate 3-kinase catalytic subunit alpha isoform (Homo sapiens, UniProt P42336). As to the kind of experiment: Inhibition of recombinant human PI3Kalpha assessed as reduction in ADP production using Dic8-PIP2 as substrate pre-treated for 15 mins followed by substrate addition measured after 60 mins by ADP-glo assay.
Data set [10] can be described thus: Distribution coefficient, logD of compound at pH 7.4. The class given is physicochemical. To be noted: octanol/water.
The target in data set [11] is Phosphatidylinositol 4-phosphate 3-kinase C2 domain-containing subunit alpha (Homo sapiens, UniProt O00443). As to the kind of experiment: Inhibition of PIK3C2A (unknown origin) assessed as reduction in substrate phosphorylation by FRET Adapta assay.
The target in data set [12] is Phosphatidylinositol 4-phosphate 3-kinase C2 domain-containing subunit beta (Homo sapiens, UniProt O00750). As to the kind of experiment: Inhibition of PIK3C2B (unknown origin) assessed as reduction in substrate phosphorylation by FRET Adapta assay.
The target in data set [13] is Phosphatidylinositol 4,5-bisphosphate 3-kinase catalytic subunit gamma isoform (Homo sapiens, UniProt P48736). In words: Inhibition of recombinant human PI3Kgamma assessed as reduction in ADP production using Dic8-PIP2 as substrate pre-treated for 15 mins followed by substrate addition measured after 60 mins by ADP-glo assay.
Data set [14] is described as follows: Volume of distribution at steady state in rat at 0.5 mg/kg, iv. Format: ADME, organism-based. Particulars: in vivo, read-out: Vdss.
Data set [15] has as its target T1, Phosphatidylinositol 4,5-bisphosphate 3-kinase catalytic subunit delta isoform (Homo sapiens, UniProt O00329).
T1 sequence (O00329 whole entry): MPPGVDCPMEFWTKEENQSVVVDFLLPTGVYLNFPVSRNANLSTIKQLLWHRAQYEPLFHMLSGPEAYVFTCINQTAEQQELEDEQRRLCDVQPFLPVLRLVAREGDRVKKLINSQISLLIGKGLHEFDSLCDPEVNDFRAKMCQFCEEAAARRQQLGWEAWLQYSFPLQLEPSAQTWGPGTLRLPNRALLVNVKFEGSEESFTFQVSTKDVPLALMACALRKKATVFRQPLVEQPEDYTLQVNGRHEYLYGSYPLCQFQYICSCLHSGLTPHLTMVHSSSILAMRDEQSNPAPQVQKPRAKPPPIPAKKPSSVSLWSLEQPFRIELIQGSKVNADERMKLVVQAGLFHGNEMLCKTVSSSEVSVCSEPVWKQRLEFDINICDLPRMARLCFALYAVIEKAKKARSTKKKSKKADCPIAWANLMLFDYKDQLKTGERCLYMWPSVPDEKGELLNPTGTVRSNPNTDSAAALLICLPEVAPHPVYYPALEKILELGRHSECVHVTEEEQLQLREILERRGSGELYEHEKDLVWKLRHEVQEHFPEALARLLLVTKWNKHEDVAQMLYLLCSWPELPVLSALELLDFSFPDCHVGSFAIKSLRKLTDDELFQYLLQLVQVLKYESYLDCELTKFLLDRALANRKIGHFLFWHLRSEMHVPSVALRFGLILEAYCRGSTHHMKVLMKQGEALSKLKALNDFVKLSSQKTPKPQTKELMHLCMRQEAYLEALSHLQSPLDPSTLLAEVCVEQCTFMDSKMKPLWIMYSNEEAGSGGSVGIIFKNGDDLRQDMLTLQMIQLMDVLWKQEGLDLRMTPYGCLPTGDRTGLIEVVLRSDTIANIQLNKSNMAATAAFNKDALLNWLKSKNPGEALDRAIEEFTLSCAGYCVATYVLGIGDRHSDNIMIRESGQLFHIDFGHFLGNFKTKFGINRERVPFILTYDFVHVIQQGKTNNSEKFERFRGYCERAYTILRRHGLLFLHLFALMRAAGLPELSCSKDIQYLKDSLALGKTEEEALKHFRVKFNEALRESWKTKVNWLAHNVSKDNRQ
As to the kind of experiment: Inhibition of recombinant human PI3Kdelta assessed as reduction in ADP production using Dic8-PIP2 as substrate pre-treated for 15 mins followed by substrate addition measured after 60 mins by ADP-glo assay.

A short description of data set [16]: Clearance in rat at 0.5 mg/kg, iv. To be noted: in vivo. The class given is ADME, organism-based.
Data set [17] has as its target T1, Phosphatidylinositol 4,5-bisphosphate 3-kinase catalytic subunit delta isoform. In words: Inhibition of PI3Kdelta in anti-IgM-stimulated human JeKo-1 cells assessed as inhibition of AKT phosphorylation at Ser473 residue incubated for 60 mins by TR-FRET assay.
Data set [18] in a line: Half life in rat plasma at 0.5 mg/kg, iv. Format: ADME, organism-based.
A short description of data set [19]: Dissociation constant, pKa of compound. Format: physicochemical.

Phosphatidylinositol 4,5-bisphosphate 3-kinase catalytic subunit gamma isoform (Mus musculus, UniProt Q9JHG7), sequence (Q9JHG7 whole entry, canonical isoform): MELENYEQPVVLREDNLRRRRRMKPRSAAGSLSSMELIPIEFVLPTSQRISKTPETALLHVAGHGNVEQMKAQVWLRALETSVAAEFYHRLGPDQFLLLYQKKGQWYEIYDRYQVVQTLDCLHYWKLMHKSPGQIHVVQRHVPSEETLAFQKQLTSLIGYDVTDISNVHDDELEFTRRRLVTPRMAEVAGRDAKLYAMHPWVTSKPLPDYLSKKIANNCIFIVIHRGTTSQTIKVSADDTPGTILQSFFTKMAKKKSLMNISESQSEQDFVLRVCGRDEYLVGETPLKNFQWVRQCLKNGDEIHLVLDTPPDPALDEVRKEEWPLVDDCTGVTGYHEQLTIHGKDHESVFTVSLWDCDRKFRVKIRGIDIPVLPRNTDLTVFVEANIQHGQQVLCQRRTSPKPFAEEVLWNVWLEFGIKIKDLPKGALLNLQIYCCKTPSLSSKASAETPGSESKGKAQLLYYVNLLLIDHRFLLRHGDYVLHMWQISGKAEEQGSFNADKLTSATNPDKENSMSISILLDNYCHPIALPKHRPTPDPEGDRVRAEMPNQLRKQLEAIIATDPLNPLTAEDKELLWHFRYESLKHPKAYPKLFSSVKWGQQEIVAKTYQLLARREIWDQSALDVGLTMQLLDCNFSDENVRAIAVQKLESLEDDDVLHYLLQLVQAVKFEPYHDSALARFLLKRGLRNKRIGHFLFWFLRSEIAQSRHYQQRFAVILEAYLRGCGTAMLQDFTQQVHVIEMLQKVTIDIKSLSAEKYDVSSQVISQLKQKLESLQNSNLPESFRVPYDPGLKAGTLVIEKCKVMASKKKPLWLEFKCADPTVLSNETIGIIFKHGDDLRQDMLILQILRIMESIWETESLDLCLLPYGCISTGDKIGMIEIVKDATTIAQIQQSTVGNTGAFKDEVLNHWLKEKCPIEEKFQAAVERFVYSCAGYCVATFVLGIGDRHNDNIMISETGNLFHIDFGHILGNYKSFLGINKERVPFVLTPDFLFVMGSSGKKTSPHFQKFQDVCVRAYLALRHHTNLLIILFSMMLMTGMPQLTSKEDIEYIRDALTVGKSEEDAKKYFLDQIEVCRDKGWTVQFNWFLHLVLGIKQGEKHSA
Phosphatidylinositol 4,5-bisphosphate 3-kinase catalytic subunit gamma isoform (Homo sapiens, UniProt P48736), sequence (P48736 whole entry, canonical isoform): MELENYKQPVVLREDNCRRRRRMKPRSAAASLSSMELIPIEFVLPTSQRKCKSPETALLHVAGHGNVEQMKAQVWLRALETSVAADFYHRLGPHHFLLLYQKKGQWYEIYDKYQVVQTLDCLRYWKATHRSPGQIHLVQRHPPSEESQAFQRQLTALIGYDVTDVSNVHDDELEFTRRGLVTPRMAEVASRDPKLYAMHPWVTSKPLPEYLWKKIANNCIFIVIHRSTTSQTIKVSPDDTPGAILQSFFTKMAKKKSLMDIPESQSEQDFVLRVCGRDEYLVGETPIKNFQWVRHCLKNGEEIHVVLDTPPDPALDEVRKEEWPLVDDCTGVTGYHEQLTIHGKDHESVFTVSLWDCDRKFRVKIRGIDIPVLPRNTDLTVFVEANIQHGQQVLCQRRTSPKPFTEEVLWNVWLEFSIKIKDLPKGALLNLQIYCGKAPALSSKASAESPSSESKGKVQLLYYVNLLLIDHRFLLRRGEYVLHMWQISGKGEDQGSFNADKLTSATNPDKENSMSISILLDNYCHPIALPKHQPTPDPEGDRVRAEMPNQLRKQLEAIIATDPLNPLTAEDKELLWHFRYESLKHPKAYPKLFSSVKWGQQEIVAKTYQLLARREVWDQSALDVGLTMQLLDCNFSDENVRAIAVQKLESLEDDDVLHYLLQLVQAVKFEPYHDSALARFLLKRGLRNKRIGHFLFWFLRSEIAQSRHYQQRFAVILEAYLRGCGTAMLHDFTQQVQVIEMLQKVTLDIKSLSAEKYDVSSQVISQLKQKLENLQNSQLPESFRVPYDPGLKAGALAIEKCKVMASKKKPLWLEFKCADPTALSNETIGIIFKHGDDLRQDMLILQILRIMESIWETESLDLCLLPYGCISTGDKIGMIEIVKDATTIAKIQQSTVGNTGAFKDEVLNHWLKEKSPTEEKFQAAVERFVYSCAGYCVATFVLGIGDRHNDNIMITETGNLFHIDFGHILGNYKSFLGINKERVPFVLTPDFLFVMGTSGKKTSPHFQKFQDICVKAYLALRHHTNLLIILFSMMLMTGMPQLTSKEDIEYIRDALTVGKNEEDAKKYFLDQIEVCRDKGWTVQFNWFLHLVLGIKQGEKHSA
Phosphatidylinositol 4,5-bisphosphate 3-kinase catalytic subunit alpha isoform, sequence (P42336 whole entry, canonical isoform): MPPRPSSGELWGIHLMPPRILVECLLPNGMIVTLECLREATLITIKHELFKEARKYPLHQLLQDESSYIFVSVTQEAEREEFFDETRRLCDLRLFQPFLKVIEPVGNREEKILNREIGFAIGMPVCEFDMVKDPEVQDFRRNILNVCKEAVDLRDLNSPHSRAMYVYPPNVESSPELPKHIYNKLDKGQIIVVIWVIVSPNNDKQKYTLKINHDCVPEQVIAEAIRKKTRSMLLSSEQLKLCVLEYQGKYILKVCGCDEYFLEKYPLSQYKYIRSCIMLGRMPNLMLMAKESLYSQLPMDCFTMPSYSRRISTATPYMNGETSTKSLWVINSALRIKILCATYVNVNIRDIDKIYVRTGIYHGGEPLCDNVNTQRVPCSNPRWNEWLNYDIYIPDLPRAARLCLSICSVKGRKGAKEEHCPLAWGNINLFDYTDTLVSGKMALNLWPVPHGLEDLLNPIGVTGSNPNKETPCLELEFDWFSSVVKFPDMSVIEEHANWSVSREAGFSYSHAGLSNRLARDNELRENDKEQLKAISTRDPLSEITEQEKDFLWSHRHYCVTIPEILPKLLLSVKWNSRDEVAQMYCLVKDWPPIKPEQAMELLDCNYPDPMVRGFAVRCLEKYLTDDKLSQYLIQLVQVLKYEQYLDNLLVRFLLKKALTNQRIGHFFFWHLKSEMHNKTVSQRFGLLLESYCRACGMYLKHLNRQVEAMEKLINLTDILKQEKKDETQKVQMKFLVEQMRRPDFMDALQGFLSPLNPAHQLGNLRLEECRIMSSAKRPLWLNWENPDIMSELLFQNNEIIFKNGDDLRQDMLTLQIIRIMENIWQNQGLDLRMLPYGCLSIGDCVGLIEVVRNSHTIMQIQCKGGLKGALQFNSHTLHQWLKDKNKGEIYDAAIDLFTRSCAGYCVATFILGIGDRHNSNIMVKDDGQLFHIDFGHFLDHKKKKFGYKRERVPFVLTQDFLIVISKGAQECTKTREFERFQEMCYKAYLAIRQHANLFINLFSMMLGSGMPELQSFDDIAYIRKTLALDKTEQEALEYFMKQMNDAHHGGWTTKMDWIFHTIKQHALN
Phosphatidylinositol 3-kinase catalytic subunit type 3, sequence (Q8NEB9 whole entry): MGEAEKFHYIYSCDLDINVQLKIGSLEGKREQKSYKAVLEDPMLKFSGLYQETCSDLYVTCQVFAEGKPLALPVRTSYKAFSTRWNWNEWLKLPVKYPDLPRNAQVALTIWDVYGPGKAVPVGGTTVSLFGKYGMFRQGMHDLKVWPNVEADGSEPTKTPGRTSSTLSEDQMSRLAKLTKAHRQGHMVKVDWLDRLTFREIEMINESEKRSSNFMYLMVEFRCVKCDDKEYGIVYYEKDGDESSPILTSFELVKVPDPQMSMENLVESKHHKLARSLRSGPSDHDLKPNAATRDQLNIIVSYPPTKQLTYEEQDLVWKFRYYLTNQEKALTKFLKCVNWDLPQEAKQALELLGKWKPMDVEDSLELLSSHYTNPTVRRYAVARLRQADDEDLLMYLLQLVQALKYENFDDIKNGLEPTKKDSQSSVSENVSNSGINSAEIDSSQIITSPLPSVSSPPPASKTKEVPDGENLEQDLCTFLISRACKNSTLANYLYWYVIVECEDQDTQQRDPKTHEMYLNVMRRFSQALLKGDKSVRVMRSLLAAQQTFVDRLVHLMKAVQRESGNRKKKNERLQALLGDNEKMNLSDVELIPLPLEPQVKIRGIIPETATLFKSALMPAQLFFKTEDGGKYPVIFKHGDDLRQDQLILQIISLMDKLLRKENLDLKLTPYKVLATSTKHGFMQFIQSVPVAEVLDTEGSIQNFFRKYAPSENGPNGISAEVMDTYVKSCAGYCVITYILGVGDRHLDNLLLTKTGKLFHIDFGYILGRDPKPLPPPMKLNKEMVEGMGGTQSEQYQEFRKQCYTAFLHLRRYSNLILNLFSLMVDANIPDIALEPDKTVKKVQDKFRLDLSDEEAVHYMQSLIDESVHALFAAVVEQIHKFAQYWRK
Phosphatidylinositol 4-kinase beta, sequence (Q9UBF8 whole entry): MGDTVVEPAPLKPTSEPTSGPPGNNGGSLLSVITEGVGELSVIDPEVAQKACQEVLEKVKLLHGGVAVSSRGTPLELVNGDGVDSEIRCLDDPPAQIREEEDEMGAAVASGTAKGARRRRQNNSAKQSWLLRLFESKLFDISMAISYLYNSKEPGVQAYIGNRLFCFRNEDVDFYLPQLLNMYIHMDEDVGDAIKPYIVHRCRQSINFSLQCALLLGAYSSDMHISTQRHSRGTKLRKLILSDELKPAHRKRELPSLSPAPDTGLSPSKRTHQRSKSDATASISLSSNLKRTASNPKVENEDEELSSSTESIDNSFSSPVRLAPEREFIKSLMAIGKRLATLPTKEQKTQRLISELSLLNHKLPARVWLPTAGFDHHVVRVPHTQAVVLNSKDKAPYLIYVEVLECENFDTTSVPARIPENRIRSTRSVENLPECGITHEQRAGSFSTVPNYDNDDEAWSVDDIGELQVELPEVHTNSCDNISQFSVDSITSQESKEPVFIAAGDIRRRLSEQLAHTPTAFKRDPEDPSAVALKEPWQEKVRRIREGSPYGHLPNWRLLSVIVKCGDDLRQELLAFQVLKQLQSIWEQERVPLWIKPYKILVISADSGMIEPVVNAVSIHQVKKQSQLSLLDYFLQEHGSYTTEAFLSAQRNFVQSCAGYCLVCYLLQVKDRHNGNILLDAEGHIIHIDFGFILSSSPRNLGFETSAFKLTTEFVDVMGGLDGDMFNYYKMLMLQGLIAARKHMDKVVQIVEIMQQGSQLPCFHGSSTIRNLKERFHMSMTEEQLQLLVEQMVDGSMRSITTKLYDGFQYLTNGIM

With `Cc1nc2sc1-c1cc3c(c(c1)S(=O)(=O)NCCOCCNC(=O)c1cccc(n1)N2)C(=O)N([C@@H](C)C1CC1)C3`, the IC50 is 25.1 nM in [1]; 20 nM in [3]; 0.794 nM in data set [6]; greater than 10000 nM in data set [7]; 39.8 nM in [9]; 316 nM in data set [11]. The concentration for half-maximal inhibition (IC50) in [12] is 0.794 nM; in data set [13], 2.51 nM; in data set [15] it was 0.631 nM; in data set [17], 2 nM. Further, the permeability result in data set [2] is on record as “Permeable”. Further, the solubility (thermodynamic) at 24 h in [4] was found to be 0.084 µM (≈ 0.0489 µg/mL). The Tm in data set [5] turned out to be 377 °C. In addition, the half-life is 6.9 h in [8] and 1.8 h in data set [18]. Moreover, the logD in [10] was 3.7. The Vd in [14] is 8.6 L/kg. In addition, the clearance in [16] was 110 mL/min/kg.

As to `Cc1nc2sc1-c1cc3c(c(c1)S(=O)(=O)NCCCCCNC(=O)c1cccc(n1)N2)C(=O)N([C@@H](C)C1CC1)C3`, the IC50 was 1.58 nM in data set [6]; 31.6 nM in data set [9]; 1.26 nM in [13]; 0.501 nM in [15]; 1.26 nM in data set [17].

On to `Cc1nc(Nc2cccc(N3CCOCC3=O)n2)sc1-c1cc2c(c(S(=O)(=O)NC3COC3)c1)C(=O)N([C@@H](C)C1CC1)C2`, for which the IC50 was 31.6 nM in data set [1]; 501 nM in data set [3]; greater than 10000 nM in [7]; 100 nM in data set [9]; 3160 nM in [11]. The permeability result in data set [2] was “Impermeable”. The compound also had a solubility (thermodynamic) at 24 h in [4] of 0.337 µM (≈ 0.211 µg/mL). The Tm in data set [5] amounted to 187 °C. Also, the half-life in data set [8] was 4.2 h; in [18] it was 0.7 h. In addition, in data set [10], the logD was 3.5. The Vd in data set [14] was found to be 5.4 L/kg. Further, the clearance in [16] worked out at 136 mL/min/kg.

Take `Cc1nc2sc1-c1cc3c(c(c1)S(=O)(=O)NCCN(C)CCNC(=O)c1cccc(n1)N2)C(=O)N([C@@H](C)C1CC1)C3`: the permeability result in data set [2] is recorded as “Impermeable”. Besides, the solubility (thermodynamic) at 24 h in data set [4] amounted to 1.09 µM (≈ 0.649 µg/mL). Besides, in data set [5], the Tm stood at 349 °C. In addition, the IC50 in [6] is 1.58 nM; in data set [9], 39.8 nM; in data set [13], 1.58 nM; in data set [15], 0.501 nM; in data set [17], 3.16 nM. In addition, the half-life in data set [8] is 7.5 h; in data set [18], 1.8 h. Further, the logD in data set [10] is 3.9. Further, the pKa in data set [19] was 6.4. In [14], the Vd is 7.3 L/kg. For the same compound, the clearance in data set [16] stood at 83 mL/min/kg.

As to `CNS(=O)(=O)c1cc(-c2sc(Nc3cccc(N4CCN(C)CC4=O)n3)nc2C)cc2c1C(=O)N([C@@H](C)C1CC1)C2`, the IC50 in [6] is 1.26 nM; in [9], 39.8 nM; in data set [15], 1.58 nM; in data set [17] it was 6.31 nM.

As for `Cc1nc(Nc2cccc(N3CCCC3=O)n2)sc1-c1cc2c(c(S(=O)(=O)NC3COC3)c1)C(=O)N([C@@H](C)C1CC1)C2`, the half-maximal inhibitory concentration (IC50) in data set [6] is 1 nM; in data set [9] it was 126 nM; in [15], 0.794 nM; in data set [17] it was 5.01 nM.

Turning to `Cc1nc(Nc2cccc(N3CCN(C)C3=O)n2)sc1-c1cc2c(c(S(C)(=O)=O)c1)C(=O)N([C@@H](C)C1CC1)C2`, the IC50 in data set [6] is 1 nM; in [9], 39.8 nM; in data set [15], 0.794 nM; in data set [17], 3.98 nM.

For the compound `Cc1nc2sc1-c1cc3c(c(c1)S(=O)(=O)NCCN(C)CCCNC(=O)c1cccc(n1)N2)C(=O)N([C@@H](C)C1CC1)C3`, the IC50 was 1 nM in data set [6]; 50.1 nM in [9]; 0.794 nM in data set [13]; 0.631 nM in data set [15]; 3.16 nM in [17].
